No end group written: not given here.
Experiments:
[1] = tested on: human chondrocytes (NHAC-kn); test: Pro-inflammatory model of chondrocytes treated with IL-1β, cytokine release (Multiplex); format: cell-based; conditions: chondrocytes treated with IL-1β (1 ng/mL)
Protocol: Values were obtained from each analyte in pg/mL from treatment with the peptides in the presence of IL-1β (1 ng/mL). The data are presented as the mean±MSE (* p<0.05 when compared to the control with IL-1β, test t, n=3).
(B) Chondrocytes were pretreated for 1 hour with IL-1β (1 ng/mL) before the addition of peptides (200 nM, 500 nM, and 1.25 μM) and an additional incubation of 24 hours before collecting the supernatants.
The primary human chondrocytes used in this assay were purchased from Lonza: Normal Human Articular Primary chondrocytes (NHAC-Kn, #CC-2550, Lot 8F3336). Chondrocyte cell culture was performed in bottles (Sarstedt T175 and T75). The cells were cultivated in DMEM culture medium (Sigma) supplemented with 10% fetal bovine serum (FBS) (Sigma), incubated in an oven at 37° C. and 5% CO2, and cultures were used in the sixth passage. The culture medium was changed every two days until the culture reached 80% confluence.
The identification and quantitative analysis of the cytokines present in the peptide treatment supernatant were performed using the Luminex xMAP Milliplex MAP Human Cytokine/Chemokine Magnetic Bead Panel Catalog #HCYTOMAG-60K technology, according to the manufacturer's instructions.
Values were obtained from each analyte in pg/mL from treatment with the peptides in the presence of IL-1β (1 ng/mL). The data are presented as the mean±MSE (*p<0.05 when compared to the control with IL-1β, test t, n=3).

[2] = tested on: neurons obtained from SHSY5Y cells; test: Anti-nociceptive/anti-inflammatory model, neurons stimulated with glycated collagen (GC): substance P and β-endorphin in supernatant; format: cell-based; conditions: peptide 200 nM incubated 3 hours after GC (100 μg/mL)
Protocol: ANOVA and Dunnet * p<0.05; ** p<0.01 compared to glycated collagen (GC);
ANOVA and Dunnet * p<0.05 ** p<0.01, *** p<0.001 compared with GC;
(§1) The differentiation process consists of 6 stages distributed over 7 days. On the first day of the differentiation protocol (day 0), cells were seeded in collagen-coated plates. On days 1, 3, and 4 the culture medium was removed, and the differentiation medium containing 2% fetal bovine serum (FBS) and retinoic acid (RA) 10 μM) was added. On day 5, the medium was removed and the culture was incubated with culture medium and brain-derived neurotrophic factor (BDNF) (50 ng/mL). On day 7 of the differentiation process, differentiated neurons are fully ready for use (Agholme et al., 2010, with some modifications).
(§2) 7×10^3 neurons/well were incubated with 10 μM of morphine (inhibitory response control) or peptides (200 nM and 500 nM) 3 hours before or 3 hours after incubation with IL-1β (10 ng/mL) or glycated collagen (GC) (100 μg/mL) (both positive controls for the release of substance P). After 24 hours of incubation, the cell viability assay and the detection of substance P and β-endorphin in the supernatant were performed. Multiplex with magnetic spheres (MILLIPLEX® MAP Magnetic Bead Panel)
ANOVA and Dunnet * p<0.05; ** p<0.01 compared to GC.
ANOVA and Dunnet * p<0.05 ** p<0.01, *** p<0.001 compared to GC.

[3] = tested on: THP-1 cells differentiated into macrophages; test: LPS-induced cytokine production in THP-1-derived macrophages (Multiplex); format: cell-based, human
Protocol: THP-1 cells differentiated into macrophages were induced with LPS (10 ng/mL) and, one hour later, treated with synthetic peptides at a concentration of 200 nM. Dexamethasone (10 μM), an inflammatory inhibitor, was used as a control. After 24 hours, the culture medium was collected to measure the IL-1β (A), IL-6 (B), TNF-α (C), and IL-10 cytokines using a Multiplex kit. * p<0.05 vs. LPS; ** p<0.01 vs. LPS; *** p<0.005 vs. LPS;
THP-1 cells differentiated into macrophages were induced with LPS (10 ng/mL) and, one hour later, treated with L4 or D3 peptide (0.05 μM, 0.2 μM, 1 μM, and 2 μM). After 24 hours, the culture medium was collected and TNF-alpha, IL-6, IL-23, and IL-8 were measured by Multiplex. (A) L4 peptide. (B) D3 peptide;
(§3) Macrophages were obtained from the differentiation of monocytes THP-1. Briefly, 1×10^7 cells were treated in the RPMI medium with 25 nM PMA for 48 hours followed by 24 hours of rest in medium without PMA. Subsequently, the cells were released and plated for the respective treatments.
The kit is based on Luminex® xMAP® technology that allows the simultaneous analysis of various cytokines. The technique is based on marked magnetic fluorescent spheres, known as MagPlex®-C microspheres. These microspheres are covered with capture antibodies specific for IL-6 […], and specifically capture the analyte in the supernatant. Each microsphere was individually identified and the results were analyzed using Luminex® Xponent® 4.2 acquisition software.
THP-1 cells differentiated into macrophages were induced with LPS (10 ng/mL) and, one hour later, treated with synthetic peptides, […] (inflammation inhibitor, 10 μM). After 24 hours, the culture medium was collected and IL-1β (A), IL-6 (B), TNF-α (C), and IL-10 were measured by Multiplex. * p<0.05 vs. LPS; ** p<0.01 vs. LPS; *** p<0.005 vs. LPS.
THP-1 cells differentiated into macrophages were induced with LPS (10 ng/mL) and, one hour after, treated with L4 (0.05 μM, 0.2 μM, 1 μM, and 2 μM). After 24 hours, the culture medium was collected and TNF-α, IL-6, IL-23, and IL-8 were measured by Multiplex. (A) L4 peptide. (B) D3 peptide.

[4] = tested on: neurons obtained from SHSY5Y cells; test: Anti-nociceptive/anti-inflammatory model, neurons stimulated with IL-1β: substance P and β-endorphin in supernatant; format: cell-based
Protocol: ANOVA and Dunnet ** p<0.01, *** p<0.001 compared to IL-1β;
as §1, §2
ANOVA and Dunnet ** p<0.01, *** p<0.001 compared to […]

[5] = tested on: macrophages derived from THP-1; test: Cell viability (MTT) of macrophages derived from THP-1; format: cell-based, human
Protocol: as §3
The evaluation of metabolically active cells was performed using the colorimetric assay of [3-(4,5-dimethylthiazol-2-yl)-2,5-diphenyl tetrazolium] bromide (MTT, Sigma-Aldrich, St. Louis, USA), as previously reported (Twentyman et al., 1987). After each incubation period, the supernatant was removed and a MTT solution (0.5 mg/mL in phosphate-buffered saline—PBS) was added, and the cells incubated at 37° C. and 5% CO2 for 3 hours (Yang et al., 2012). After this period, the solution was removed and crystals of dark blue formazan were solubilized with 1 mL of dimethyl sulfoxide (DMSO, Merck, Darmstad) for 5 minutes. Quantification of formazan was done using an automatic ELISA microplate reader (SLT, Austria) at 570 nm.

[6] = LPS 10 ng/mL, peptide 200 nM one hour later, 24 hours, vs group treated only with LPS
[7] = dose-response 0.05, 0.2, 1 and 2 μM, LPS 10 ng/mL, 24 hours
[8] = peptide 200 nM added 3 hours after IL-1β (10 ng/mL)

Sequence	anti-inflammatory activity (release of G-CSF, GM-CSF, IL-6, IL-8, MCP-1, TNF-α) [1]	production of Substance P [2]	production of β-endorphin [2]	levels of IL-10 (anti-inflammatory cytokine) ([3]; LPS 10 ng/mL, peptide 200 nM one hour later, 24 hours)	levels of IL-1β [3, 6]	levels of IL-6 [3, 6]	levels of TNF-a [3, 6]	best dose regarding IL-6 release [3, 7] [µM]	best dose regarding IL-8 release [3, 7] [µM]	most effective dose concerning IL-23 release [3, 7] [µM]	most effective dose concerning TNF-α release [3, 7] [µM]	production of inflammatory cytokines in response to LPS (dose-dependent) ([3]; dose-response 0.05-2 μM, TNF-α, IL-6, IL-23, IL-8)	production of Substance P [4, 8]	production of β-endorphin [4, 8]	production of substance P induced by IL-1β ([4]; peptide 200 nM added 3 hours before IL-1β (10 ng/mL))	viability of macrophages derived from THP-1 [5]
DYWHDGHDLN (Designated peptide based on the motif of a group of proteins called hemoline from lepidoptera acting as an anti-inflammatory molecule.) [D3]	anti-inflammatory activity	significantly inhibited	increased	reduced	significantly reducing	significantly reducing	significantly reducing	1	1	1	1	reduced	inhibit	induced	significantly inhibited	–
YAIGYSCKDYK [P4, YAIGYSCKDYK]	–	–	–	–	–	–	–	–	–	–	–	–	–	–	–	no effect
